Experimental data reported in ChEMBL document CHEMBL4152332, “Discovery and synthesis of novel magnolol derivatives with potent anticancer activity in non-small cell lung cancer” (Eur J Med Chem, 2018).

Experiments:
[1] = Antiproliferative activity against human SPC-A1 cells after 72 hrs by MTT assay; type: functional, cell-based; details: SPCA1, 72 h
NCI-H1975 [2] = experiment: Antiproliferative activity against human NCI-H1975 cells after 72 hrs by MTT assay; type: functional, cell-based; details: NCI-H1975, 72 h
[3] = Antitumor activity against mouse C26 cells implanted in Balb/c mouse assessed as tumor growth inhibition at 100 mg/kg, po qd and measured every 2 days relative to control; type: functional; details: 48 h, read-out: TGI
Mus musculus [4] = experiment: Toxicity in Balb/c mouse implanted with mouse C26 cells assessed as change in body weight at 100 mg/kg, po qd treated for 10 days and measured every 2 days (RVB = 16.4%); type: organism-based; details: in vivo
NCI-H1975 [5] = experiment: Induction of apoptosis in human NCI-H1975 cells assessed as early apoptotic cells at 40 uM after 48 hrs by annexin V/FITC-propidium iodide staining-based flow cytometric method ( Rvb = 6.09%); type: functional
Mus musculus [6] = experiment: Toxicity in Balb/c mouse xenografted with human NCI-H1975 cells assessed as mouse death at 100 mg/kg, po qd treated for 18 days and measured every 2 days after compound dosing; type: organism-based; details: in vivo
Mus musculus [7] = experiment: Toxicity in Balb/c mouse implanted with mouse C26 cells assessed as mouse death at 100 mg/kg, po qd treated for 10 days; type: organism-based; details: in vivo, 240 h
NCI-H441 = experiment: Antiproliferative activity against human H441 cells after 72 hrs by MTT assay; type: functional, cell-based; details: NCI-H441, 72 h
NCI-H1975 [8] = experiment: Antitumor activity against human NCI-H1975 cells xenografted in Balb/c mouse assessed as change in tumor mass at 20 mg/kg, iv treated every 2 days for 9 days and measured every 2 days after compound dosing relative to control; type: functional
NCI-H358 = experiment: Antiproliferative activity against human NCI-H358 cells after 72 hrs by MTT assay; type: functional, cell-based; details: NCI-H358, 72 h
Mus musculus [9] = experiment: Toxicity in Balb/c mouse xenografted with human NCI-H1975 cells assessed as change in body weight at 20 mg/kg, iv treated every 2 days for 9 days and measured every 2 days after compound dosing ( Rvb = 2.89%); type: organism-based; details: in vivo
PC-9 = experiment: Antiproliferative activity against human PC9 cells after 72 hrs by MTT assay; type: functional, cell-based; details: PC-9, 72 h
NCI-H1975 [10] = experiment: Cell cycle arrest in human NCI-H1975 cells assessed as accumulation at G0/G1 phase at 40 uM after 24 hrs by propidium iodide staining-based flow cytometric analysis (reference value: 56.11%); type: functional
NCI-H1975 [11] = experiment: Cell cycle arrest in human NCI-H1975 cells assessed as accumulation at S phase at 40 uM after 24 hrs by propidium iodide staining-based flow cytometric analysis (reference value: 22.93%); type: functional
NCI-H1975 [12] = experiment: Induction of apoptosis in human NCI-H1975 cells assessed as viable cells at 40 uM after 48 hrs by annexin V/FITC-propidium iodide staining-based flow cytometric method ( Rvb = 82.5%); type: functional; details: NCI-H1975, 48 h, read-out: Activity
Mus musculus [13] = experiment: Toxicity in Balb/c mouse xenografted with human NCI-H1975 cells assessed as mouse death at 20 mg/kg, iv treated every 2 days for 9 days and measured every 2 days after compound dosing; type: organism-based; details: in vivo
HCC827 = experiment: Antiproliferative activity against human HCC827 cells after 72 hrs by MTT assay; type: functional, cell-based; details: HCC827, 72 h
NCI-H1975 [14] = experiment: Cell cycle arrest in human NCI-H1975 cells assessed as accumulation at G2/M phase at 40 uM after 24 hrs by propidium iodide staining-based flow cytometric analysis (reference value: 20.11%); type: functional
NCI-H1975 [15] = experiment: Antitumor activity against human NCI-H1975 cells xenografted in Balb/c mouse assessed as change in tumor mass at 100 mg/kg, po qd treated for 18 days and measured every 2 days after compound dosing relative to control; type: functional
NCI-H1975 [16] = experiment: Induction of apoptosis in human NCI-H1975 cells assessed as late apoptotic cells at 40 uM after 48 hrs by annexin V/FITC-propidium iodide staining-based flow cytometric method ( Rvb = 10.4%); type: functional
NCI-H1650 = experiment: Antiproliferative activity against human NCI-H1650 cells after 72 hrs by MTT assay; type: functional, cell-based; details: NCI-H1650, 72 h
NCI-H1975 [17] = experiment: Induction of apoptosis in human NCI-H1975 cells assessed as necrotic cells at 40 uM after 48 hrs by annexin V/FITC-propidium iodide staining-based flow cytometric method ( Rvb = 1.01%); type: functional
NCI-H460 = experiment: Antiproliferative activity against human H460 cells after 72 hrs by MTT assay; type: functional, cell-based; details: NCI-H460, 72 h
[18] = Apparent aqueous solubility of the compound by HPLC analysis; type: physicochemical; details: aqueous solution
Mus musculus [19] = experiment: Toxicity in Balb/c mouse xenografted with human NCI-H1975 cells assessed as change in body weight at 100 mg/kg, po qd treated for 18 days and measured every 2 days after compound dosing ( Rvb = 2.89%); type: organism-based; details: in vivo

## C=CCc1ccc(O)c(-c2ccc(O)c(CC=C)c2)c1 [HONOKIOL]
[1]
  IC50: 39 µM
NCI-H1975 [2]
  IC50: 30.2 µM
[3]
  inhibition in vivo at 100 mg/kg: 16.7%
Mus musculus [4]
  Activity: 6.92%
NCI-H1975 [5]
  Activity: 43.8%
Mus musculus [6]
  Activity: Non-Toxic
Mus musculus [7]
  Activity: Non-Toxic
NCI-H441
  IC50: 33.3 µM
NCI-H1975 [8]
  Activity: 73%
NCI-H358
  IC50: 31.6 µM
Mus musculus [9]
  Activity: 6.1%
PC-9
  IC50: 36.7 µM
NCI-H1975 [10]
  Activity: 67.42%
NCI-H1975 [11]
  Activity: 6.54%
NCI-H1975 [12]
  viability at 40 µM: 47.4%
Mus musculus [13]
  Activity: Non-Toxic
HCC827
  IC50: 33.9 µM
NCI-H1975 [14]
  Activity: 18.55%
NCI-H1975 [15]
  Activity: 11.8%
NCI-H1975 [16]
  Activity: 7.97%
NCI-H1650
  IC50: 37.4 µM
NCI-H1975 [17]
  Activity: 0.87%
NCI-H460
  IC50: 38.5 µM
[18]
  solubility: < 10 µg/mL
Mus musculus [19]
  Activity: 1.38%
